US11708366B2, “Heteroaryl substituted spiropiperidinyl derivatives and pharmaceutical uses thereof” (Novartis AG, priority 2020, dated 2023)

How the values were obtained:
LTC4S [1] = target: T1, LTC4S (Homo sapiens (Human), UniProt Q16873); experiment: Human whole blood HTRF assay (LTC4 release after calcium ionophore A23187); assay type: cell-based; details: calcium ionophore A23187 stimulation, LTC4 by HTRF
LTC4S [2] = target: T1, LTC4S; experiment: Human LTC4S enzymatic assay (HTRF detection of LTC4-Me); assay type: biochemical
Experimental: A. Human LTC4S Enzymatic Assay:
LTC4 synthase catalyzes the conversion of Leukotriene A4 (LTA4) to Leukotriene C4 (LTC4) in the presence of reduced glutathione (GSH) as a co-substrate. For compound testing, compounds are delivered as 10 mM stock solutions in 90% DMSO in matrix tubes. From this, a 1:3 dilution dose response series is prepared with a starting concentration of 30 μM to 0.1 nM. For the enzymatic assay 97.5 nL of compound/DMSO solution is transferred to each well and 5 μL enzyme solution (assay buffer: 50 mM bis-tris propane pH 7.3, 250 mM NaCl, 10 mM MgCl2, 0.001% MGN3) is added to the wells. […] The enzyme compound mixture is incubated at room temperature for 15 minutes prior to the addition of 5 μL substrate solution. […] A final substrate concentration of 400 μM GSH and 5 μM LTA4-Me is chosen.
The LTA4-Me is obtained commercially in 2% triethylamine/hexane solvent. As this solvent is incompatible with the HTRF assay it has to be exchanged with DMSO according to following procedure: add 50 μL of 100% DMSO to 50 μL LTA4-Me (3 mM) in a 2 mL Eppendorf tube and mix gently by inverting the tube. The triethylamine/hexane is evaporated under a constant argon flux at room temperature. The DMSO-LTA4-Me (3 mM) is aliquoted and stored at −20° C. for not longer than 4 weeks, as it is not stable in DMSO due to its oxidizing properties.
Upon addition of the substrate, the plate is immediately placed on a shaker for 5 min at room temperature. Immediately after the 5 min incubation 5 μL of H2O2 solution is added to all wells to stop the reaction. The plate contents are mixed before the addition of detection reagents. […] For the detection of the product of the enzymatic reaction LTC4-Me, the Cisbio LTC4-HTRF kit is used as the assay is compatible with the detection of LTC4-Me. 5 μL of diluted LTC4-d2 conjugate (according to manufacturer's protocol) are added to all wells of the assay plate and the contents gently mixed and incubated for 5 minutes at room temperature. […] The percent inhibition for each point of an inhibition curve is calculated after data interpolation using the LTC4-Me standard curve, to convert the HTRF signal to the amount of LTC4-Me produced within the LTC4S catalyzed reaction on each plate. The data is analyzed using parametric curve fitting to determine IC50 values of LTC4S inhibitors.

[3] = human whole blood diluted 1:3, 4 h incubation, read-out: human whole blood HTRF IC50
[4] = 0.75 nM enzyme, 400 μM GSH, 5 μM LTA4-Me, 15 min pre-incubation, read-out: human LTC4S IC50 (enzymatic assay)

`O=C1CCCC2(CCN(c3cnn(-c4ccc(F)cc4)n3)CC2)N1c1ccc(Cl)c(F)c1` [Example 31, 1-(4-chloro-3-fluorophenyl)-9-(2-(4-fluorophenyl)-2H-1,2,3-triazol-4-yl)-1,9-diazaspiro[5.5]undecan-2-one] showed an IC50 (LTC4S [1]; [3]) of 120 nM and an IC50 (LTC4S [2]; [4]) of 15 nM.
`O=C1CCCC2(CCN(c3cccc(-c4ccc(F)cc4)n3)CC2)N1c1ccc(Cl)cc1` [Example 32, 1-(4-chlorophenyl)-9-(6-(4-fluorophenyl)pyridin-2-yl)-1,9-diazaspiro[5.5]undecan-2-one] showed an IC50 (LTC4S [1]; [3]) of 170 nM and an IC50 (LTC4S [2]; [4]) of 7 nM.
`O=C1CCCC2(CCN(c3cc(-c4ccc(F)cc4)cc[n+]3[O-])CC2)N1c1ccc(Cl)c(F)c1` [Example 33, 2-(1-(4-chloro-3-fluorophenyl)-2-oxo-1,9-diazaspiro[5.5]undecan-9-yl)-4-(4-fluorophenyl)pyridine 1-oxide] showed an IC50 (LTC4S [1]; [3]) of 56 nM and an IC50 (LTC4S [2]; [4]) of 24 nM.
`O=C1CCCC2(CCN(c3ccnc(N4CC5(CC5)C4)n3)CC2)N1c1ccc(Cl)c(F)c1` [Example 35a, 9-(2-(5-azaspiro[2.3]hexan-5-yl)pyrimidin-4-yl)-1-(4-chloro-3-fluorophenyl)-1,9-diazaspiro[5.5]undecan-2-one] showed an IC50 (LTC4S [1]; human whole blood HTRF IC50, human whole blood diluted 1:3, 4 h incubation) of 40 nM and an IC50 (LTC4S [2]) of 12 nM.
Compound `O=C1CCCC2(CCN(c3ncnc(N4CCCC4)c3F)CC2)N1c1ccc(Cl)c(F)c1` [Example 36, 1-(4-chloro-3-fluorophenyl)-9-(5-fluoro-6-(pyrrolidin-1-yl)pyrimidin-4-yl)-1,9-diazaspiro[5.5]undecan-2-one] has an IC50 (LTC4S [1]; [3]) of 44 nM and an IC50 (LTC4S [2]; [4]) of 6 nM.
`O=C1CCCC2(CCN(c3ncnc(N4CC(C(F)(F)F)C4)c3F)CC2)N1c1ccc(Cl)c(F)c1` [Example 37, 1-(4-chloro-3-fluorophenyl)-9-(5-fluoro-6-(3-(trifluoromethyl)azetidin-1-yl)pyrimidin-4-yl)-1,9-diazaspiro[5.5]undecan-2-one] was tested, and the IC50 (LTC4S [1]; [3]) was 120 nM and the IC50 (LTC4S [2]; [4]) was 12 nM.
`O=C1CCCC2(CCN(c3ncnc(N4CCCC4)n3)CC2)N1c1ccc(Cl)c(F)c1` [Example 38, 1-(4-chloro-3-fluorophenyl)-9-(4-(pyrrolidin-1-yl)-1,3,5-triazin-2-yl)-1,9-diazaspiro[5.5]undecan-2-one] gave an IC50 (LTC4S [1]; [3]) of 86 nM and an IC50 (LTC4S [2]; [4]) of 8 nM.
Work on `O=C1CCCC2(CCN(c3cc(OCC(F)(F)F)ccn3)CC2)N1c1ccc(Cl)c(F)c1` [Example 81, 1-(4-chloro-3-fluorophenyl)-9-(4-(2,2,2-trifluoroethoxy)pyridin-2-yl)-1,9-diazaspiro[5.5]undecan-2-one] yielded an IC50 (LTC4S [1]; [3]) of 72 nM and an IC50 (LTC4S [2]; [4]) of 13 nM.
With `O=C1CCCC2(CCN(c3cc(OCC(F)F)ncn3)CC2)N1c1ccc(Cl)c(F)c1` [Example 84, 1-(4-chloro-3-fluorophenyl)-9-(6-(2,2-difluoroethoxy)pyrimidin-4-yl)-1,9-diazaspiro[5.5]undecan-2-one] the IC50 (LTC4S [1]; [3]) was 9 nM and the IC50 (LTC4S [2]; [4]) was 8 nM.
